Reference: patent publication US20200237864A1, “METHODS AND COMPOSITIONS FOR TREATING FIBROTIC INTERSTITIAL LUNG DISEASE” (INSERM (INSTITUT NATIONAL DE LA SANTÉ ET DE LA RECHERCHE …, priority 2017, published 2020)

Columns and labels:
[1] = system: Primary human normal lung fibroblasts (CCD-16Lu cells); experiment: Lung fibroblast cell growth assay; type: cell-based; settings: CK666 100 μM vs DMSO, Day 4
Experimental: (§1) Primary human normal lung fibroblasts (CCD-16Lu cells, American Type Culture Collection, Manassas, Va., USA) were grown in DMEM-Glutamax medium supplemented with 10% fetal bovine serum and penicillin/streptomycin (Thermofisher, Villebon-sur-Yvette, France), at 37° C. with 5% CO2. Experiments were performed between passages 7 and 12, when cells reached 70% confluency. Fibroblasts were treated either with 100 μM CK666 (Tocris, Lille, France) or 1/1000 dimethylsulfoxide (DMSO, Sigma,St Quentin Fallavier, France) as a control. In a second set of experiments, fibroblasts were transfected with 4 nM of either short interfering RNAs targeting ARPC2 (siARPC2, Silencer Select, Thermofisher) or control RNAs (siControl), using the Lipofectamine RNAimax reagent (Thermofisher). For cell growth assays, 50 000 cells/well were plated in 12-well plates, grown for 4 days, detached with 5% trypsin and counted using Kova Glasstic counting slides (Thermofisher). […] Cell proteins were recovered in 100 μl lysis buffer (50 mM Tris HCl pH7.4, 150 mM NaCl, 0.1% SDS, 0.5% sodium deoxycholate, 1% Triton X-100) with 1% protease inhibitor (P8340, Sigma) and quantitated by the BiCinchoninic acid Assay (Pierce, Thermofisher); mRNA was extracted using the GeneJET RNA Purification Kit (Thermofisher).

[2] = system: G/F actin ratio in lung fibroblasts (CCD-16Lu cells); experiment: Determination of G- and F-actin levels in lung fibroblasts; type: cell-based, human
Experimental: as §1, with “In a second set of experiments, fibroblasts were transfected with 4 nM of either short interfering RNAs targeting ARPC2 (siARPC2, Silencer Select, Thermofisher) or control RNAs (siControl), using the Lipofectamine RNAimax reagent (Thermofisher).” left out
500 000 cells were seeded in 75 cm2 flasks and treated with either CK666 or DMSO for 24 h. […] Supernatant (G-actin) and pellet (F-actin) samples were analyzed by immunoblotting on polyvinylidene fluoride membranes using a beta-actin primary antibody (Sigma).

ACTA2 = experiment: Spontaneous and TGFB1-induced ACTA2 expression in lung fibroblasts (RTPCR, cell-based ELISA); design: species or system human
Experimental: (§2) Primary human normal lung fibroblasts (CCD-16Lu cells, American Type Culture Collection, Manassas, Va., USA) were grown in DMEM-Glutamax medium supplemented with 10% fetal bovine serum and penicillin/streptomycin (Thermofisher, Villebon-sur-Yvette, France), at 37° C. with 5% CO2. Experiments were performed between passages 7 and 12, when cells reached 70% confluency. Fibroblasts were treated either with 100 μM CK666 (Tocris, Lille, France) or 1/1000 dimethylsulfoxide (DMSO, Sigma,St Quentin Fallavier, France) as a control. In a second set of experiments, fibroblasts were transfected with 4 nM of either short interfering RNAs targeting ARPC2 (siARPC2, Silencer Select, Thermofisher) or control RNAs (siControl), using the Lipofectamine RNAimax reagent (Thermofisher). For cell growth assays, 50 000 cells/well were plated in 12-well plates, grown for 4 days, detached with 5% trypsin and counted using Kova Glasstic counting slides (Thermofisher). For differentiation assays, cells were plated in 12-well plates, grown to 70% confluency, treated for 24 h with siControl or siARPC2 when appropriate, starved of serum for 24 h, and treated with either CK666 or DMSO 30 minutes before treatment with either 5 ng/ml recombinant human TGFB1 (R&D Systems, Lille, France) of control solvent for 48h. Cell proteins were recovered in 100 μl lysis buffer (50 mM Tris HCl pH7.4, 150 mM NaCl, 0.1% SDS, 0.5% sodium deoxycholate, 1% Triton X-100) with 1% protease inhibitor (P8340, Sigma) and quantitated by the BiCinchoninic acid Assay (Pierce, Thermofisher); mRNA was extracted using the GeneJET RNA Purification Kit (Thermofisher).
For cell-based ELISA, cells were grown in 12-well plates, fixed with 4% paraformaldehyde for 15 min, permeabilized with 0.5% Triton X-100 in PBS, blocked with 1% bovine albumin, incubated overnight at 4° C. with an ACTA2 primary antibody (A2547, dilution 1/1000, Sigma), and sequentially incubated with an anti-mouse biotinylated antibody (Vector, dilution 1/400), streptavidin-horseradish peroxidase (R&D Systems), and Tetramethylbenzidine substrate (Sigma). The reaction was stopped with […] and absorbance readings were taken at 450 nm with 570 nm as a reference wavelength. […]
(§3) RNAs were reverse-transcribed using the First Strand cDNA Synthesis Kit (Thermofisher). Transcripts were quantified by RTPCR (Sybr select Master Mix, Thermofisher) and expressed relative to UBC (human samples) or Gapdh (mouse samples) as an endogenous control using the 2^−ΔCt method.

COL1 = experiment: Spontaneous and TGFB1-induced COL1 expression in lung fibroblasts (RTPCR, ELISA); type: cell-based, human; settings: CK666 100 μM
Experimental: as §2
Procollagen-1 (COL1) and Glyćeraldéhyde-3-phosphate déshydrogenase (GAPDH) were quantified by ELISA (DY6220 and DYC5718, R&D Systems). COL1 was expressed relative to GAPDH as an endogenous control.
as §3

[3] = system: bleomycin-induced lung fibrosis; type: in vivo, C57BL6-J mice
Experimental: Male, 8-week old C57BL6-J mice (Janvier, Le Genest-St-Ile, France) were treated with an orotracheal instillation of either 120 μg bleomycin (Laboratoires Bellon, France) or saline, under isoflurane anesthesia. In a first set of experiments, mice were treated from the 7th to the 14th day following instillation with daily subcutaneous injections of either 5 mg/kg of the Arp2/3 inhibitor CK666 (Tocris Biochemicals, Bristol, UK) in 100 μl of 40% Dimethylsulfoxide in saline (vehicle) (M. Park et al. 2013), or vehicle alone. Mice were monitored and weighted daily and their diet was supplemented with gel-based food (Dietgel Recovery gels, ClearH2O, Westbrook, Me., USA). On the 14th day following bleomycin, mice were anesthetized with 300 mg/kg Ketamine and 30 mg/kg xylazine, and euthanized by exsanguination. Bronchoalveolar lavage was performed with 2×1 ml saline. Lung were either snap-frozen in liquid nitrogen or inflation-fixed in 4% formaldehyde. Inhibition of the Arp2/3 complex in vivo. The study protocol was approved by the regional ethics board (APAFIS#5669-20 16061413402331).
Total insoluble collagen was quantified in left lung homogenates (Sircol Insoluble collagen Assay, Biocolor, Carrickfergus, UK). Soluble procollagen-1 was quantified in homogenates of the right upper lung lobe by ELISA (DY6220, R&D Systems). RNAs were extracted from the right middle lung lobe (Allprep, Qiagen) and reverse-transcribed (First Strand cDNA Synthesis Kit, Thermofisher). Transcripts associated with fibrogenesis were quantified by RTPCR (Sybr select Master Mix, Thermofisher) and expressed relative to Gapdh as an endogenous control. The activity of enzymes key to collagen polymerization and degradation was measured in lysates of right lower lobe using fluorimetric assays specific for lysil oxidase (Amplite™ Fluorimetric Lysyl Oxidase Assay, AAT Bioquest, Sunnyvale, Calif., USA) and collagenase (fluorimetric DQ collagen type 1, Sigma Aldrich, St Quentin-Fallavier, France). Clostridium histolyticum collagenase (Sigma-Aldrich) was used as a positive control for collagenase assays. Total BALF proteins were measured with the BCA protein assay (Thermofisher). BALF cells were counted using a hemocytometer. For histological analysis, 5-μm sections of paraffin-embedded lung were stained with Masson's trichrome stain.

[4] = bleomycin-instilled mice, CK666 vs vehicle
[5] = lung lysates, bleomycin-instilled mice, CK666 vs vehicle
[6] = mouse lungs, CK666 5 mg/kg daily day 7-14, RTPCR

`Cc1[nH]c2ccccc2c1CCNC(=O)c1ccccc1F` [CK666] was tested, and the “reduction of cell growth (fold-increase in cell number relative to seeding)” value [1] was 36%, the “TGFB1-induced increase in the G/F actin ratio” value ([2]; TGFB1 5 ng/ml, CK666 100 μM or 4 nM siARPC2) was “inhibited” and the G/F actin ratio ([2]; unstimulated lung fibroblasts, CK666 100 μM vs DMSO or 4 nM siARPC2 vs siControl) was “increased”. The “TGFB1-driven increase in ACTA2 mRNA” value (ACTA2; TGFB1 5 ng/ml 48 h, RTPCR) was “partially”, the “TGFB1-driven increase in ACTA2 protein” value (ACTA2; TGFB1 5 ng/ml 48 h, cell-based ELISA) was “totally” and the “expression of ACTA2 mRNA” value (ACTA2; unstimulated lung fibroblasts, CK666 100 μM, RTPCR) was “did not modulate”. The “expression of ACTA2 protein” value (ACTA2; unstimulated lung fibroblasts, CK666 100 μM, cell-based ELISA) was “did not modulate”, the “reduction of the TGFB1-driven increase in COL1 protein” value (COL1; TGFB1 5 ng/ml, ELISA, trend, p=0.13) was 30% and the “TGFB1-driven increase in COL1A1 mRNA” value (COL1; TGFB1 5 ng/ml, RTPCR) was “did not modulate”. The “TGFB1-driven increase in COL1A2 mRNA” value (COL1; TGFB1 5 ng/ml, RTPCR) was “did not modulate”, the “reduction of COL1/GAPDH protein ratio” value (COL1; unstimulated cells, ELISA) was 54% and the “expression of COL1A1 mRNA” value (COL1; unstimulated cells, RTPCR) was “did not modulate”. For the same compound, the “expression of COL1A2 mRNA” value (COL1; unstimulated cells, RTPCR) was “did not modulate”, the “reduction of lung content in procollagen-1” value ([3]; bleomycin-instilled mice, CK666 5 mg/kg daily day 7-14 vs vehicle, ELISA) was 55% and the “bleomycin-induced increase in BALF total protein” value [3, 4] was “reduced neither”. For the same compound, the bleomycin-induced weight loss [3, 4] was “reduced neither”, the “lung levels of LOX mRNA” value [3, 4] was “did not reduced” and the “lung levels of LOXL2 mRNA” value [3, 4] was “did not reduced”. For the same compound, the “lung levels of TG2 mRNA” value [3, 4] was “did not reduced”, the “bleomycin-induced increase in lung Collal mRNA” value ([3]; bleomycin-instilled mice, CK666 vs vehicle, RTPCR relative to Gapdh) was “did not reduce” and the “reduction of lung insoluble collagen” value ([3]; bleomycin-instilled mice, left lung, CK666 5 mg/kg daily day 7-14 vs vehicle, Sircol assay) was 20%. For the same compound, the “bleomycin-induced increase in lung lysyl oxidase activity” value [3, 5] was “not modified”, the lung collagenase activity [3, 5] was “no effect” and the “lung expression of Arp2 mRNA” value [3, 6] was “increased expression”. For the same compound, the “lung expression of ArpCla mRNA” value [3, 6] was “increased expression”, the “lung expression of Arpc3 mRNA” value [3, 6] was “increased expression” and the lung histology ([3]; mouse, in vivo) was “did not result in modifications of lung histology”.
